{
  "source": "ChEMBL document CHEMBL5505992",
  "about": "“Novel membrane-targeting isoxanthohumol-amine conjugates for combating methicillin-resistant Staphylococcus aureus (MRSA) infections” (Eur J Med Chem, 2024)",
  "key": {"Staphylococcus aureus [1]": {"system": "Staphylococcus aureus", "assay": "Bactericidal activity against Staphylococcus aureus ATCC 29213 assessed as bacterial killing at 8 times MIC measured within 0.5 to 1 hrs by time kill assay relative to control", "format": "functional", "settings": "time 0.5-1 hrs"}, "[2]": {"assay": "Toxicity in Kunming mouse assessed as histopathological abnormalities in skin at 10 mg/kg, sc measured after 24 hrs by H and E staining based analysis", "format": "organism-based", "settings": "in vivo"}, "Staphylococcus aureus [3]": {"system": "Staphylococcus aureus", "assay": "Antibacterial activity against methicillin-resistant Staphylococcus aureus infected in Kunming mouse skin infection model assessed as decrease in bacterial load at 4 mg/kg,sc measured after 24 hrs relative to control", "format": "functional", "parameters": "scale not given: the % may be the effect or the level left"}, "[4]": {"assay": "Hemolytic activity in sheep erythrocytes incubated for 1 hr by absorbance based analysis", "format": "toxicity, cell-based, Ovis aries, Erythrocyte"}, "Cell membrane [5]": {"system": "Cell membrane", "assay": "Disruption of cell membrane in methicillin-resistant Staphylococcus aureus clinical isolate MRSA-16 assessed as increase in intracellular ROS production at upto 64 ug/ml measured after 40 mins by DCFH-DA dye based fluorescence assay", "format": "cell membranes", "settings": "dose <= 64.0 µg/ml"}, "Cell membrane [6]": {"system": "Cell membrane", "assay": "Induction of cell membrane permeability in methicillin-resistant Staphylococcus aureus clinical isolate MRSA-16 assessed as increase in damaged cells (Q2 region) at 8 ug/ml incubated for 2 hrs by SYTO 9 and PI staining based flow cytometry analysis (reference value: 0.91%)", "format": "cell membranes", "settings": "dose 8.0 µg/ml"}, "Escherichia coli": {"system": "Escherichia coli", "assay": "Antibacterial activity against Escherichia coli ATCC25922 measured after 16 to 18 hrs by CLSI method", "format": "functional", "settings": "time 16-18 hrs"}, "[7]": {"assay": "Toxicity in Kunming mouse assessed as effect on kidney at 10 mg/kg, sc measured after 24 hrs by H and E staining based analysis", "format": "organism-based", "settings": "in vivo"}, "Staphylococcus aureus [8]": {"system": "Staphylococcus aureus", "assay": "Bactericidal activity against methicillin-resistant Staphylococcus aureus clinical isolate MRSA-16 assessed as bacterial killing measured upto 8 hrs by time kill assay", "format": "functional, organism-based"}, "Staphylococcus aureus [9]": {"system": "Staphylococcus aureus", "assay": "Induction of morphological changes in methicillin-resistant Staphylococcus aureus clinical isolate MRSA-16 assessed as ruptured cell surface at 16 ug/ml incubated for 4 hrs by SEM analysis", "format": "functional, organism-based", "settings": "dose 16.0 µg/ml"}, "Staphylococcus aureus [10]": {"system": "Staphylococcus aureus", "assay": "Antibacterial activity against methicillin-resistant Staphylococcus aureus clinical isolate MRSA-22 measured after 16 to 18 hrs by CLSI method", "format": "functional", "settings": "time 16-18 hrs"}, "Staphylococcus aureus [11]": {"system": "Staphylococcus aureus", "assay": "Antibacterial activity against methicillin-resistant Staphylococcus aureus clinical isolate MRSA-20 measured after 16 to 18 hrs by CLSI method", "format": "functional", "settings": "time 16-18 hrs"}, "[12]": {"assay": "Toxicity in Kunming mouse assessed as histopathological abnormalities in spleen at 10 mg/kg, sc measured after 24 hrs by H and E staining based analysis", "format": "organism-based", "settings": "in vivo"}, "[13]": {"assay": "Toxicity in Kunming mouse assessed as effect on liver at 10 mg/kg, sc measured after 24 hrs by H and E staining based analysis", "format": "organism-based", "settings": "in vivo"}, "[14]": {"assay": "Toxicity in Kunming mouse assessed as histopathological abnormalities in lung at 4 to 8 mg/kg, sc measured after 24 hrs by H and E staining based analysis", "format": "organism-based", "settings": "in vivo, dose 4-8 mg/kg"}, "[15]": {"assay": "Toxicity in Kunming mouse assessed as animal death at 20 mg/kg, sc measured after 24 hrs", "format": "organism-based", "settings": "in vivo"}, "[16]": {"assay": "Cytotoxicity against human L02 cells assessed as cell viability at <=16 ug/ml by CCK-8 method relative to control", "format": "toxicity, cell-based", "settings": "up to 16 µg/mL, read-out: Activity"}, "Cell membrane [17]": {"system": "Cell membrane", "assay": "Induction of cell membrane permeability in methicillin-resistant Staphylococcus aureus clinical isolate MRSA-16 assessed as dead cells (Q1 region) at 8 ug/ml incubated for 2 hrs by SYTO 9 and PI staining based flow cytometry analysis (reference value: 0.00%)", "format": "cell membranes", "settings": "dose 8.0 µg/ml"}, "Cell membrane [18]": {"system": "Cell membrane", "assay": "Induction of cell membrane permeability in methicillin-resistant Staphylococcus aureus clinical isolate MRSA-16 assessed as dead cells (Q1 region) at 4 ug/ml incubated for 2 hrs by SYTO 9 and PI staining based flow cytometry analysis (reference value: 0.00%)", "format": "cell membranes", "settings": "dose 4.0 µg/ml"}, "Cell membrane [19]": {"system": "Cell membrane", "assay": "Disruption of cell membrane in methicillin-resistant Staphylococcus aureus clinical isolate MRSA-16 assessed as fold increase in intracellular ROS production at 64 ug/ml measured after 40 mins by DCFH-DA dye based fluorescence assay", "format": "cell membranes", "settings": "dose 64.0 µg/ml"}, "Staphylococcus aureus [20]": {"system": "Staphylococcus aureus", "assay": "Antibacterial activity against methicillin-resistant Staphylococcus aureus infected in Kunming mouse skin infection model assessed as appearance of small number of infiltrated inflammatory cells in skin dermis at 8 mg/kg,sc measured after 24 hrs", "format": "functional, organism-based"}, "Cell membrane [21]": {"system": "Cell membrane", "assay": "Induction of cell membrane permeability in methicillin-resistant Staphylococcus aureus clinical isolate MRSA-16 assessed as decrease in intact cells (Q3 region) at 64 ug/ml incubated for 2 hrs by SYTO 9 and PI staining based flow cytometry analysis (reference value: 99.07%)", "format": "cell membranes", "parameters": "scale not given: the % may be the effect or the level left", "settings": "dose 64.0 µg/ml"}, "Cell membrane [22]": {"system": "Cell membrane", "assay": "Induction of cytoplasmic membrane depolarization in methicillin-resistant Staphylococcus aureus clinical isolate MRSA-16 assessed as fold increase in fluorescence intensity at 32 ug/ml measured every 2 mins for 20 mins by SYTOX green staining based analysis", "format": "cell membranes", "settings": "dose 32.0 µg/ml"}, "Staphylococcus aureus [23]": {"system": "Staphylococcus aureus", "assay": "Bactericidal activity against Staphylococcus aureus ATCC 29213 assessed as bacterial killing measured upto 8 hrs by time kill assay", "format": "functional, organism-based"}, "Cell membrane [24]": {"system": "Cell membrane", "assay": "Induction of cell membrane permeability in methicillin-resistant Staphylococcus aureus clinical isolate MRSA-16 assessed as increase in damaged cells (Q2 region) at 16 ug/ml incubated for 2 hrs by SYTO 9 and PI staining based flow cytometry analysis (reference value: 0.91%)", "format": "cell membranes", "settings": "dose 16.0 µg/ml"}, "Staphylococcus aureus [25]": {"system": "Staphylococcus aureus", "assay": "Antibacterial activity against methicillin-resistant Staphylococcus aureus in presence of cardiolipin", "format": "functional, organism-based"}, "Staphylococcus aureus [26]": {"system": "Staphylococcus aureus", "assay": "Antibacterial activity against methicillin-resistant Staphylococcus aureus infected in Kunming mouse skin infection model assessed as reduction in inflammatory cells at 4 to 8 mg/kg,sc measured after 24 hrs", "format": "functional, organism-based", "settings": "dose 4-8 mg/kg"}, "[27]": {"assay": "Toxicity in Kunming mouse assessed as effect on heart at 10 mg/kg, sc measured after 24 hrs by H and E staining based analysis", "format": "organism-based", "settings": "in vivo"}, "[28]": {"assay": "Toxicity in Kunming mouse assessed as swelling in back of skin at 20 mg/kg, sc measured after 24 hrs", "format": "organism-based", "settings": "in vivo"}, "Staphylococcus aureus [29]": {"system": "Staphylococcus aureus", "assay": "Antibacterial activity against methicillin-resistant Staphylococcus aureus infected in Kunming mouse skin infection model assessed as effect on skin abscesses in dorsal surface at 4 mg/kg,sc measured after 24 hrs", "format": "functional, organism-based"}, "[30]": {"assay": "Selectivity index, ratio of HC50 for hemolytic activity in sheep erythrocytes to MIC for antibacterial activity against Staphylococcus aureus ATCC 29213", "format": "toxicity, cell-based", "settings": "read-out: Selectivity Index"}, "Staphylococcus aureus [31]": {"system": "Staphylococcus aureus", "assay": "Antibacterial activity against methicillin-resistant Staphylococcus aureus clinical isolate MRSA-23 measured after 16 to 18 hrs by CLSI method", "format": "functional", "settings": "time 16-18 hrs"}, "Cell membrane [32]": {"system": "Cell membrane", "assay": "Induction of cytoplasmic membrane depolarization in methicillin-resistant Staphylococcus aureus clinical isolate MRSA-16 assessed as increase in fluorescence intensity at 8 to 32 ug/ml measured every 2 mins for 20 mins by SYTOX green staining based analysis", "format": "cell membranes", "settings": "dose 8-32 µg/ml"}, "Staphylococcus aureus [33]": {"system": "Staphylococcus aureus", "assay": "Antibacterial activity against methicillin-resistant Staphylococcus aureus clinical isolate MRSA-21 measured after 16 to 18 hrs by CLSI method", "format": "functional", "settings": "time 16-18 hrs"}, "Staphylococcus aureus [34]": {"system": "Staphylococcus aureus", "assay": "Antibacterial activity against methicillin-resistant Staphylococcus aureus infected in Kunming mouse skin infection model assessed as effect on skin lesions in subcutaneous tissue at 8 mg/kg,sc measured after 24 hrs", "format": "functional, organism-based"}, "[35]": {"assay": "Toxicity in Kunming mouse assessed as effect on lung at 4 to 8 mg/kg, sc measured after 24 hrs by H and E staining based analysis", "format": "organism-based", "settings": "in vivo, dose 4-8 mg/kg"}},
  "note": "Calls of active or inactive are those of the source. The calls are words filed in the database; no cut-off is given here.",
  "data": [
    {"compound": "CCCC[N+](C)(CCCC)CCCCCOc1ccc(C2CC(=O)c3c(OC)cc(OCCCCC[N+](C)(CCCC)CCCC)c(CC=C(C)C)c3O2)cc1.[I-].[I-]", "note": "(stereo unspecified)", "values": [
      {"measurement": "Activity", "setting": "Staphylococcus aureus [1]", "value": 100, "unit": "%"},
      {"measurement": "Activity", "setting": "[2]", "value": "Non-Toxic"},
      {"measurement": "Activity", "setting": "Staphylococcus aureus [3]", "value": 99.86, "unit": "%"},
      {"measurement": "HC50 at 1 h", "setting": "[4]", "value": "> 1280", "unit": "µg/mL"},
      {"measurement": "Activity", "setting": "Cell membrane [5]", "value": "Active"},
      {"measurement": "Activity", "setting": "Cell membrane [6]", "value": 57.4, "unit": "%"},
      {"measurement": "MIC", "setting": "Escherichia coli", "value": 16, "unit": "µg/mL"},
      {"measurement": "Activity", "setting": "[7]", "value": "Non-Toxic"},
      {"measurement": "Activity", "setting": "Staphylococcus aureus [8]", "value": "Dose-Dependent Effect"},
      {"measurement": "Activity", "setting": "Staphylococcus aureus [9]", "value": "Active"},
      {"measurement": "MIC", "setting": "Staphylococcus aureus [10]", "value": 1, "unit": "µg/mL"},
      {"measurement": "MIC", "setting": "Staphylococcus aureus [11]", "value": 0.5, "unit": "µg/mL"},
      {"measurement": "Activity", "setting": "[12]", "value": "Non-Toxic"},
      {"measurement": "Activity", "setting": "[13]", "value": "Non-Toxic"},
      {"measurement": "Activity", "setting": "[14]", "value": "Non-Toxic"},
      {"measurement": "Activity", "setting": "[15]", "value": "Toxic"},
      {"measurement": "viability", "setting": "[16]", "value": 100, "unit": "%"},
      {"measurement": "Activity", "setting": "Cell membrane [17]", "value": 2.94, "unit": "%"},
      {"measurement": "Activity", "setting": "Cell membrane [18]", "value": 0.44, "unit": "%"},
      {"measurement": "fold change (FC)", "setting": "Cell membrane [19]", "value": 4},
      {"measurement": "Activity", "setting": "Staphylococcus aureus [20]", "value": "Active"},
      {"measurement": "Activity", "setting": "Cell membrane [21]", "value": 0, "unit": "%"},
      {"measurement": "fold change (FC)", "setting": "Cell membrane [22]", "value": 7},
      {"measurement": "Activity", "setting": "Staphylococcus aureus [23]", "value": "Dose-Dependent Effect"},
      {"measurement": "Activity", "setting": "Cell membrane [24]", "value": 69.9, "unit": "%"},
      {"measurement": "Activity", "setting": "Staphylococcus aureus [25]", "value": "Active"},
      {"measurement": "Activity", "setting": "Staphylococcus aureus [26]", "value": "Active"},
      {"measurement": "Activity", "setting": "[27]", "value": "Non-Toxic"},
      {"measurement": "Activity", "setting": "[28]", "value": "Toxic"},
      {"measurement": "Activity", "setting": "Staphylococcus aureus [29]", "value": "Active"},
      {"measurement": "selectivity ratio", "setting": "[30]", "value": "> 1280"},
      {"measurement": "MIC", "setting": "Staphylococcus aureus [31]", "value": 0.25, "unit": "µg/mL"},
      {"measurement": "Activity", "setting": "Cell membrane [32]", "value": "Active"},
      {"measurement": "MIC", "setting": "Staphylococcus aureus [33]", "value": 0.25, "unit": "µg/mL"},
      {"measurement": "Activity", "setting": "Staphylococcus aureus [34]", "value": "inactive"},
      {"measurement": "Activity", "setting": "[35]", "value": "Non-Toxic"}
    ]}
  ]
}
